Test system: HepG2
Assay: Hepatoprotective activity against nitrofurantoin-induced cytotoxicity in human HepG2 cells after 2 hrs by MTT assay
Assay type: functional, cell-based
Settings: HepG2, 2 h

Going from `CC(C)=CC(=O)C[C@@H](C)[C@H]1CC[C@@]2(C)[C@@H]3CC[C@H]4[C@](C)(C(=O)O)[C@@H](O)C[C@H](O)[C@@]45C[C@@]35CC[C@]12C` [GARDENOLIC ACID B] to `CC(C)=CC(=O)C[C@@H](C)[C@H]1CC[C@@]2(C)[C@@H]3CC[C@H]4C(C)(C)C(=O)C=C[C@@]45C[C@@]35CC[C@]12C`, the EC50 rises from 66.4 µM to 109 µM (1.6-fold).

Compared with `CO[C@H]1O[C@]2(C=C(C)C(=O)O2)C[C@@H]1[C@H]1CC[C@@]2(C)[C@@H]3CC[C@H]4C(C)(C)C(=O)C=C[C@@]45C[C@@]35CC[C@]12C`, `COc1cc(C2Oc3cc([C@H]4Oc5cc(O)cc(O)c5C(=O)[C@@H]4O)ccc3OC2CO)ccc1O` (some centres undefined) [SILIBININ] is 1.6-fold lower in EC50: 123 µM for the first, 75.7 µM for the second. The second is the more potent here.

Reference: ChEMBL document CHEMBL1152971, “Cycloartane triterpenoids from Kleinhovia hospita” (J Nat Prod, 2009)
